From ChEMBL document CHEMBL4425155, “Synthesis and anti-HBV activity of α-stereoisomer of aristeromycin based analogs” (Bioorg Med Chem Lett, 2016)

How the values were obtained:
Hepatitis B virus = experiment: Antiviral activity against HBV infected in human HepG2.2.15.7 cells assessed as inhibition of viral DNA level after 9 days by real time PCR method; type: functional, organism-based; details: HepG2.2.15.7, 216 h
[1] = Cytotoxicity against human HepG2.2.15.7 cells assessed as reduction in cell viability after 9 days by tetrazolium dye based method

Work on Cc1nc(N)c2c(Br)nn([C@@H]3C[C@@H](CO)[C@@H](O)[C@H]3O)c2n1 yielded an EC50 (Hepatitis B virus) greater than 100 µM and a CC50 at 216 h [1] greater than 100 µM.
Compound Cc1ncnc2c1c(Br)cn2[C@@H]1C[C@@H](CO)[C@@H](O)[C@H]1O has an EC50 (Hepatitis B virus) of 6.6 µM and a CC50 at 216 h [1] greater than 100 µM.
Nc1ccn([C@@H]2CS[C@H](CO)O2)c(=O)n1 [LAMIVUDINE] gave an EC50 (Hepatitis B virus) of 0.03 µM and a CC50 at 216 h [1] greater than 10 µM.
